Source: US12077503B2, “Substituted cyclic amides and their use as herbicides” (FMC CORPORATION, priority 2015, dated 2024)

How the values were obtained:
Assay type in all cases: in vivo
[1] = system: giant foxtail (Setaria faberii); test: Test A preemergence; details: for Plant response rating, Foxtail, Giant: 125 g ai/ha; for Foxtail, Giant plant response rating (0 to 100 scale, 0 is no effect, 100 is complete control): 500 g ai/ha, visual injury approx. 10 d
From the text: (§1) Seeds of plant species selected from barnyardgrass (Echinochloa crus-galli), Kochia (Kochia scoparia), ragweed (common ragweed, Ambrosia elatior), ryegrass, Italian (Italian ryegrass, Lolium multiflorum), crabgrass, large (Digitaria sanguinalis), giant foxtail (Setaria faberii), green foxtail (Setaria viridis), morningglory (Ipomoea spp.), pigweed (Amaranthus retroflexus), velvetleaf (Abutilon theophrasti), wheat (Triticum aestivum), and corn (Zea mays) were planted into a blend of loam soil and sand and treated preemergence with a directed soil spray using test chemicals formulated in anon-phytotoxic solvent mixture which included a surfactant.
(§2) At the same time, plants selected from these crop and weed species and also blackgrass (Alopecurus myosuroides), and Galium (catchweed bedstraw, Galium aparine) were planted in pots containing the same blend of loam soil and sand and treated with postemergence applications of test chemicals formulated in the same manner. Plants ranged in height from 2 to 10 cm and were in the one- to two-leaf stage for the postemergence treatment. Treated plants and untreated controls were maintained in a greenhouse for approximately 10 d, after which time all treated plants were compared to untreated controls and visually evaluated for injury. Plant response ratings, summarized in Table A, are based on a 0 to 100 scale where 0 is no effect and 100 is complete control. A dash (-) response means no test result.

[2] = system: barnyardgrass (Echinochloa crus-galli); test: Test A preemergence; details: for Plant response rating, Barnyardgrass: 125 g ai/ha; for Barnyardgrass plant response rating (0 to 100 scale, 0 is no effect, 100 is complete control): 500 g ai/ha, visual injury approx. 10 d
From the text: as §1, §2

[3] = system: ragweed (common ragweed, Ambrosia elatior); test: Test A preemergence; details: for Plant response rating, Ragweed: 125 g ai/ha; for Ragweed plant response rating (0 to 100 scale, 0 is no effect, 100 is complete control): 500 g ai/ha, visual injury approx. 10 d
From the text: as §1, §2

[4] = system: ryegrass, Italian (Italian ryegrass, Lolium multiflorum); test: Test A preemergence; details: for Plant response rating, Ryegrass, Italian: 125 g ai/ha; for Ryegrass, Italian plant response rating (0 to 100 scale, 0 is no effect, 100 is complete control): 500 g ai/ha, visual injury approx. 10 d
From the text: as §1, §2

Kochia (Kochia scoparia) [5] = test: Test A preemergence; details: for Plant response rating, Kochia: 125 g ai/ha; for Kochia plant response rating (0 to 100 scale, 0 is no effect, 100 is complete control): 500 g ai/ha, visual injury approx. 10 d
From the text: as §1, §2

[6] = system: pigweed (Amaranthus retroflexus); test: Test A preemergence; details: for Plant response rating, Pigweed: 125 g ai/ha; for Pigweed plant response rating (0 to 100 scale, 0 is no effect, 100 is complete control): 500 g ai/ha, visual injury approx. 10 d
From the text: as §1, §2

[7] = system: giant foxtail (Setaria faberii); test: Test A postemergence
From the text: as §1, §2

[8] = system: blackgrass (Alopecurus myosuroides); test: Test A postemergence
From the text: as §1, §2

[9] = system: barnyardgrass (Echinochloa crus-galli); test: Test A postemergence
From the text: as §1, §2

[10] = system: ragweed (common ragweed, Ambrosia elatior); test: Test A postemergence
From the text: as §1, §2

[11] = system: ryegrass, Italian (Italian ryegrass, Lolium multiflorum); test: Test A postemergence
From the text: as §1, §2

corn (Zea mays) = test: Test A postemergence
From the text: as §1, §2

[12] = system: wheat (Triticum aestivum); test: Test A postemergence
From the text: as §1, §2

[13] = system: Galium (catchweed bedstraw, Galium aparine); test: Test A postemergence
From the text: as §1, §2

Kochia (Kochia scoparia) [14] = test: Test A postemergence
From the text: as §1, §2

[15] = system: pigweed (Amaranthus retroflexus); test: Test A postemergence
From the text: as §1, §2

[16] = preemergence, 0 to 100 scale (0 no effect, 100 complete control)
[17] = 125 g ai/ha, postemergence, visual injury rating on 0 to 100 scale (0 no effect, 100 complete control), approx. 10 d
[18] = 500 g ai/ha, postemergence, 0 to 100 scale, 0 no effect, 100 complete control
[19] = Preemergence, visual injury after approximately 10 d, 0 to 100 scale where 0 is no effect and 100 is complete control
[20] = 125 g ai/ha, postemergence, visual rating after approx. 10 d, 0 to 100 scale (0 no effect, 100 complete control)
[21] = Postemergence, 500 g ai/ha, 0 to 100 scale where 0 is no effect and 100 is complete control

## CC(=O)c1ccccc1NC(=O)C1C(=O)NCC1c1ccc(F)c(F)c1 (stereo not drawn) [Compound 418]
[1]; [16]
  Plant response rating, Foxtail, Giant: 0
[1]; Preemergence
  Foxtail, Giant plant response rating (0 to 100 scale, 0 is no effect, 100 is complete control): 0
[2]; [16]
  Plant response rating, Barnyardgrass: 0
[2]; Preemergence
  Barnyardgrass plant response rating (0 to 100 scale, 0 is no effect, 100 is complete control): 0
[3]; [16]
  Plant response rating, Ragweed: 0
[3]; Preemergence
  Ragweed plant response rating (0 to 100 scale, 0 is no effect, 100 is complete control): 0
[4]; [16]
  Plant response rating, Ryegrass, Italian: 0
[4]; Preemergence
  Ryegrass, Italian plant response rating (0 to 100 scale, 0 is no effect, 100 is complete control): 0
Kochia (Kochia scoparia) [5]; [16]
  Plant response rating, Kochia: 0
Kochia (Kochia scoparia) [5]; Preemergence
  Kochia plant response rating (0 to 100 scale, 0 is no effect, 100 is complete control): 0
[6]; [16]
  Plant response rating, Pigweed: 0
[6]; Preemergence
  Pigweed plant response rating (0 to 100 scale, 0 is no effect, 100 is complete control): 0
[7]; [17]
  Foxtail, Giant plant response rating: 0
[7]; [18]
  Plant response rating, Foxtail, Giant: 0
[8]; [17]
  Blackgrass plant response rating: 0
[8]; [18]
  Plant response rating, Blackgrass: 0
[9]; [17]
  Barnyardgrass plant response rating: 0
[9]; [18]
  Plant response rating, Barnyardgrass: 0
[10]; [17]
  Ragweed plant response rating: 0
[10]; [18]
  Plant response rating, Ragweed: 0
[11]; [17]
  Ryegrass, Italian plant response rating: 0
[11]; [18]
  Plant response rating, Ryegrass, Italian: 0
Corn (Zea mays); [17]
  Corn plant response rating: 0
Corn (Zea mays); [18]
  Plant response rating, Corn: 0
[12]; [17]
  Wheat plant response rating: 0
[12]; [18]
  Plant response rating, Wheat: 0
[13]; [17]
  Galium plant response rating: 0
[13]; [18]
  Plant response rating, Galium: 0
Kochia (Kochia scoparia) [14]; [17]
  Kochia plant response rating: 0
Kochia (Kochia scoparia) [14]; [18]
  Plant response rating, Kochia: 0
[15]; [17]
  Pigweed plant response rating: 0
[15]; [18]
  Plant response rating, Pigweed: 0

## Cc1ccc(C2CN(C)C(=O)C2C(=O)Nc2ccccc2S(C)(=O)=O)c(F)c1 (stereo not drawn) [Compound 558]
[1]; [19]
  Plant response rating, Foxtail, Giant: 90
[1]; Preemergence
  Foxtail, Giant plant response rating (0 to 100 scale, 0 is no effect, 100 is complete control): 100
[2]; [19]
  Plant response rating, Barnyardgrass: 90
[2]; Preemergence
  Barnyardgrass plant response rating (0 to 100 scale, 0 is no effect, 100 is complete control): 100
[3]; [19]
  Plant response rating, Ragweed: 50
[3]; Preemergence
  Ragweed plant response rating (0 to 100 scale, 0 is no effect, 100 is complete control): 70
[4]; [19]
  Plant response rating, Ryegrass, Italian: 0
[4]; Preemergence
  Ryegrass, Italian plant response rating (0 to 100 scale, 0 is no effect, 100 is complete control): 60
Kochia (Kochia scoparia) [5]; [19]
  Plant response rating, Kochia: 70
Kochia (Kochia scoparia) [5]; Preemergence
  Kochia plant response rating (0 to 100 scale, 0 is no effect, 100 is complete control): 80
[6]; [19]
  Plant response rating, Pigweed: 30
[6]; Preemergence
  Pigweed plant response rating (0 to 100 scale, 0 is no effect, 100 is complete control): 70
[7]; [20]
  Plant response rating, Foxtail, Giant: 70
[7]; [21]
  Plant response rating, Foxtail, Giant: 90
[8]; [20]
  Plant response rating, Blackgrass: 20
[8]; [21]
  Plant response rating, Blackgrass: 60
[9]; [20]
  Plant response rating, Barnyardgrass: 80
[9]; [21]
  Plant response rating, Barnyardgrass: 100
[10]; [20]
  Plant response rating, Ragweed: 0
[10]; [21]
  Plant response rating, Ragweed: 40
[11]; [20]
  Plant response rating, Ryegrass, Italian: 0
[11]; [21]
  Plant response rating, Ryegrass, Italian: 40
Corn (Zea mays); [20]
  Plant response rating, Corn: 0
Corn (Zea mays); [21]
  Plant response rating, Corn: 20
[12]; [20]
  Plant response rating, Wheat: 0
[12]; [21]
  Plant response rating, Wheat: 40
[13]; [20]
  Plant response rating, Galium: 30
[13]; [21]
  Plant response rating, Galium: 60
Kochia (Kochia scoparia) [14]; [20]
  Plant response rating, Kochia: 20
Kochia (Kochia scoparia) [14]; [21]
  Plant response rating, Kochia: 70
[15]; [20]
  Plant response rating, Pigweed: 0
[15]; [21]
  Plant response rating, Pigweed: 0

## CN1CC(c2ccc(Br)cc2)C(C(=O)Nc2cccc(F)c2F)C1=O (stereo not drawn) [Compound 564]
[1]; [19]
  Plant response rating, Foxtail, Giant: 90
[1]; Preemergence
  Foxtail, Giant plant response rating (0 to 100 scale, 0 is no effect, 100 is complete control): 100
[2]; [19]
  Plant response rating, Barnyardgrass: 90
[2]; Preemergence
  Barnyardgrass plant response rating (0 to 100 scale, 0 is no effect, 100 is complete control): 100
[3]; [19]
  Plant response rating, Ragweed: 80
[3]; Preemergence
  Ragweed plant response rating (0 to 100 scale, 0 is no effect, 100 is complete control): 90
[4]; [19]
  Plant response rating, Ryegrass, Italian: 40
[4]; Preemergence
  Ryegrass, Italian plant response rating (0 to 100 scale, 0 is no effect, 100 is complete control): 90
Kochia (Kochia scoparia) [5]; [19]
  Plant response rating, Kochia: 80
Kochia (Kochia scoparia) [5]; Preemergence
  Kochia plant response rating (0 to 100 scale, 0 is no effect, 100 is complete control): 90
[6]; [19]
  Plant response rating, Pigweed: 90
[6]; Preemergence
  Pigweed plant response rating (0 to 100 scale, 0 is no effect, 100 is complete control): 90
[7]; [20]
  Plant response rating, Foxtail, Giant: 90
[7]; [21]
  Plant response rating, Foxtail, Giant: 90
[8]; [20]
  Plant response rating, Blackgrass: 40
[8]; [21]
  Plant response rating, Blackgrass: 70
[9]; [20]
  Plant response rating, Barnyardgrass: 90
[9]; [21]
  Plant response rating, Barnyardgrass: 90
[10]; [20]
  Plant response rating, Ragweed: 50
[10]; [21]
  Plant response rating, Ragweed: 60
[11]; [20]
  Plant response rating, Ryegrass, Italian: 60
[11]; [21]
  Plant response rating, Ryegrass, Italian: 70
Corn (Zea mays); [20]
  Plant response rating, Corn: 70
Corn (Zea mays); [21]
  Plant response rating, Corn: 80
[12]; [20]
  Plant response rating, Wheat: 40
[12]; [21]
  Plant response rating, Wheat: 60
[13]; [20]
  Plant response rating, Galium: 70
[13]; [21]
  Plant response rating, Galium: 70
Kochia (Kochia scoparia) [14]; [20]
  Plant response rating, Kochia: 80
Kochia (Kochia scoparia) [14]; [21]
  Plant response rating, Kochia: 80
[15]; [20]
  Plant response rating, Pigweed: 40
[15]; [21]
  Plant response rating, Pigweed: 70
